Source: paper PMC12040275, “Fusaric acid-mediated S-glutathionylation of MaAKT1 channel confers the virulence of Foc TR4 to banana” (PLOS Pathogens, 2025)

Experiments:
MaAKT1 [1] = biological target: T1, MaAKT1 (Musa acuminata, UniProt A0A804HWY8); experiment: whole-cell patch clamp, HEK-293; assay type: cell-based; details: HEK293
T1 construct: synthesized cDNA in pcDNA 6/His A, expressed in HEK-293 cells; patch-clamp

MaAKT1 [2] = biological target: T1, MaAKT1; experiment: patch clamp, giant inside-out patches from HEK-293; assay type: biochemical; details: covalent (cysteine thiol oxidation); applied to cytosolic side; -194 mV

T1 sequence (A0A804HWY8 1-891): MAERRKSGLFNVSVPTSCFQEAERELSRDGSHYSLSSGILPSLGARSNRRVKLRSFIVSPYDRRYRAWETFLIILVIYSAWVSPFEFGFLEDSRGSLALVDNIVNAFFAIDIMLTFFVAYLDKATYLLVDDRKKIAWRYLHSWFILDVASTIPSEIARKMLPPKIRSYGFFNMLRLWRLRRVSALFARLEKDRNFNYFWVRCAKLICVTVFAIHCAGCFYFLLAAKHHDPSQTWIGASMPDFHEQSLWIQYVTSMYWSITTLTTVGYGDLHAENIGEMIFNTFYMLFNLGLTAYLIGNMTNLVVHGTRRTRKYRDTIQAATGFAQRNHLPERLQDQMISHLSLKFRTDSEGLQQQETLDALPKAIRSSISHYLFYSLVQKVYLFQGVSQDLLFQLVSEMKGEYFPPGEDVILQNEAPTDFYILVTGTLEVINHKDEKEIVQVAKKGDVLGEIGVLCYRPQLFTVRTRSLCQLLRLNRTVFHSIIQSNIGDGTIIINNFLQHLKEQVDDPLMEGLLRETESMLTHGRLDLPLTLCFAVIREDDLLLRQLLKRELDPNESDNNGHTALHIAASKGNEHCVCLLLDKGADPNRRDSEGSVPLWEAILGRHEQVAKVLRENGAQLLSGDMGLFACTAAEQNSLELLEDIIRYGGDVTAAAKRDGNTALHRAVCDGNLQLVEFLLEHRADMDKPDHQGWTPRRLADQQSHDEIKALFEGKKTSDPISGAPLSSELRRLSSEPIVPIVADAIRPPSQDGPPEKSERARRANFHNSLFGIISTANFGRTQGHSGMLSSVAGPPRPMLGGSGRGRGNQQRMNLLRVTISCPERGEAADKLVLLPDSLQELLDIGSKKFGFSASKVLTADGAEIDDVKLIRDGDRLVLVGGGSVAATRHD

Compound | inhibition at 50 µM (MaAKT1 [1]) [%] | patch clamp, giant inside-out patches from HEK-293 (MaAKT1 [2])
O=[N+]([O-])c1ccc(SSc2ccc([N+](=O)[O-])cn2)nc1 [DTNP, 2,2’-dithiobis-5-nitropyridine] | 60 ± 9.89 | 
c1ccc(SSc2ccccn2)nc1 [2-DTP, 2,2-Dithiodipyridine] | 61.5 ± 6.66 | 
O=C(O)c1cc(SSc2ccc([N+](=O)[O-])c(C(=O)O)c2)ccc1[N+](=O)[O-] [DTNB, 5,5-dithiobis-2-nitrobenzoic acid] |  | low concentration of DTNB significantly inhibited MaAKT1
